# Measurements taken from patent publication US6770597B2, “Benzohydrazide derivatives as herbicides and desiccant compositions containing them” (Ishihara Sangyo Kaisha, Ltd., priority 2002, dated 2004).
# Columns and labels:
# Assay type in all cases: in vivo
# [1] = tested on: barnyardgrass (Echinochloa crus-galli, ECHCG); assay: Greenhouse herbicide screen, post-emerge application, phytotoxicity rating; conditions: POST emergent, 14 days after application, scale 0-100
# Excerpt: (§1) A standard greenhouse herbicide activity screening system was used to evaluate the herbicidal efficacy and crop safety of these test compounds. Seven broadleaf weed species including redroot pigweed (Amaranthus retrofiexus, AMARE), velvetleaf (Abutilon theophrasti, ABUTH), sicklepod (Cassia obtusifolia, CASOB), ivyleaf morningglory (Ipomoea hederacea, IPOHE), lambsquarters (Chenopodium album, CHEAL), common ragweed (Ambrosia artemisiifolia L., AMBEL), and cocklebur (Xanthium strumarium, XANST) were used as test species. Four grass weed species including green foxtail (Setaria viridis, SETVI), barnyardgrass (Echinochloa crus-galli, ECHCG), johnsongrass (Sorghum halepense, SORHA), and large crabgrass (Digitaria sanguinalis, DIGSA) were also used. In addition, four crop species, field corn (Zea mays L., var. Dekalb 535, CORN), soybean (Glycine max L., var. Pella 86, SOY), upland rice (Oryza sp., var.Cocodrie, RICE) and wheat (Triticum aestivum L.) were included.
# (§2) All plants were grown in 10 cm square plastic pots which were filled with a sandy loam soil mix. For pre-emerge tests, seeds were planted one day prior to application of the test compounds. For post-emerge tests, seeds were planted 8-21 days prior to the test to allow emergence and good foliage development prior to application of the test substances. At the time of the post-emerge application, plants of all species were usually at the 2-3 leaf stage of development.
# (§3) All test compounds were dissolved in acetone and applied to the test units in a volume of 187 l/ha. Test materials were applied at rates ranging from 15 g ai/ha to 1000 g ai/ha using a track sprayer equipped with a TJ8001E even flow flat fan spray nozzle. Plants were arranged on a shelf so that the top of the canopy (post-emerge) or top of the soil surface (pre-emerge) was 40-45 cm below the nozzle. Pressurized air was used to force the test solution through the nozzle as it was mechanically advanced (via electrically driven chain drive) over the top of all test plants/pots. This application simulates a typical commercial field herbicide application.
# (§4) Pre-emergence tests were top watered immediately after treatment to incorporate the test materials, then routinely top-watered for normal growth. Post-emerge test units were always bottom-watered.
# (§5) At 14 days after application of the test materials, phytotoxicity ratings were recorded. A rating scale of 0-100 was used as previously described in Research Methods in Weed Science, 2nd edition, B. Truelove, Ed., Southern Weed Science Society, Auburn University, Auburn, Ala., 1977. Briefly, “0” corresponds to no damage and “100” corresponds to complete death of all plants in the test unit. This scale was used both to determine efficacy against weed species and damage to crop species. Herbicide activity data for various compounds of this invention, which are shown by compound No. in Tables 1-12, are shown in Tables 13 and 14.
# [2] = tested on: cocklebur (Xanthium strumarium, XANST); assay: as above; conditions: POST emergent, 14 days after application, scale 0-100
# Excerpt: as §1, §2, §3, §4, §5
# [3] = tested on: common ragweed (Ambrosia artemisiifolia L., AMBEL); assay: as above; conditions: POST emergent, 14 days after application, scale 0-100
# Excerpt: as §1, §2, §3, §4, §5
# [4] = tested on: green foxtail (Setaria viridis, SETVI); assay: as above; conditions: POST emergent, 14 days after application, scale 0-100
# Excerpt: as §1, §2, §3, §4, §5
# [5] = tested on: ivyleaf morningglory (Ipomoea hederacea, IPOHE); assay: as above; conditions: POST emergent, 14 days after application, scale 0-100
# Excerpt: as §1, §2, §3, §4, §5
# [6] = tested on: johnsongrass (Sorghum halepense, SORHA); assay: as above; conditions: POST emergent, 14 days after application, scale 0-100
# Excerpt: as §1, §2, §3, §4, §5
# [7] = tested on: lambsquarters (Chenopodium album, CHEAL); assay: as above; conditions: POST emergent, 14 days after application, scale 0-100
# Excerpt: as §1, §2, §3, §4, §5
# [8] = tested on: large crabgrass (Digitaria sanguinalis, DIGSA); assay: as above; conditions: POST emergent, 14 days after application, scale 0-100
# Excerpt: as §1, §2, §3, §4, §5
# [9] = tested on: redroot pigweed (Amaranthus retrofiexus, AMARE); assay: as above; conditions: POST emergent, 14 days after application
# Excerpt: as §1, §2, §3, §4, §5
# [10] = tested on: sicklepod (Cassia obtusifolia, CASOB); assay: as above; conditions: POST emergent, 14 days after application, scale 0-100
# Excerpt: as §1, §2, §3, §4, §5
# [11] = tested on: velvetleaf (Abutilon theophrasti, ABUTH); assay: as above; conditions: POST emergent, 14 days after application, scale 0-100
# Excerpt: as §1, §2, §3, §4, §5
# [12] = tested on: barnyardgrass (Echinochloa crus-galli, ECHCG); assay: Greenhouse herbicide screen, pre-emerge application, phytotoxicity rating; conditions: PRE emergent, 14 days after application, rating scale 0-100
# Excerpt: as §1, §2, §3, §4, §5
# [13] = tested on: cocklebur (Xanthium strumarium, XANST); assay: as above; conditions: PRE emergent, 14 days after application, rating scale 0-100
# Excerpt: as §1, §2, §3, §4, §5
# [14] = tested on: common ragweed (Ambrosia artemisiifolia L., AMBEL); assay: as above; conditions: PRE emergent, 14 days after application, rating scale 0-100
# Excerpt: as §1, §2, §3, §4, §5
# [15] = tested on: green foxtail (Setaria viridis, SETVI); assay: as above; conditions: PRE emergent, 14 days after application, rating scale 0-100
# Excerpt: as §1, §2, §3, §4, §5
# [16] = tested on: ivyleaf morningglory (Ipomoea hederacea, IPOHE); assay: as above; conditions: PRE emergent, 14 days after application, rating scale 0-100
# Excerpt: as §1, §2, §3, §4, §5
# [17] = tested on: johnsongrass (Sorghum halepense, SORHA); assay: as above; conditions: PRE emergent, 14 days after application, rating scale 0-100
# Excerpt: as §1, §2, §3, §4, §5
# [18] = tested on: lambsquarters (Chenopodium album, CHEAL); assay: as above; conditions: PRE emergent, 14 days after application, rating scale 0-100
# Excerpt: as §1, §2, §3, §4, §5
# [19] = tested on: large crabgrass (Digitaria sanguinalis, DIGSA); assay: as above; conditions: PRE emergent, 14 days after application, rating scale 0-100
# Excerpt: as §1, §2, §3, §4, §5
# [20] = tested on: redroot pigweed (Amaranthus retrofiexus, AMARE); assay: as above; conditions: PRE emergent, 14 days after application, rating scale 0-100
# Excerpt: as §1, §2, §3, §4, §5
# [21] = tested on: sicklepod (Cassia obtusifolia, CASOB); assay: as above; conditions: PRE emergent, 14 days after application, rating scale 0-100
# Excerpt: as §1, §2, §3, §4, §5
# [22] = tested on: velvetleaf (Abutilon theophrasti, ABUTH); assay: as above; conditions: PRE emergent, 14 days after application, rating scale 0-100
# Excerpt: as §1, §2, §3, §4, §5
# [23] = 63 g ai/ha, scale 0-100 (0 no damage, 100 complete death)
structure (smiles),measurement,setting,value
"Cn1c(C(F)(F)F)cc(=O)n(-c2cc(C(=O)NN=C(C(C)(C)C)C(C)(C)C)c(Cl)cc2F)c1=O [Compound 6-4, 2-chloro-5-(3,6-dihydro-3-methyl-2,6-dioxo-4-(trifluoromethyl)-1(2H)-pyrimidinyl)-4-fluoro-benzoic acid, 2-[1-(1,1-dimethylethyl)-2,2-dimethylpropylidene]hydrazide]",phytotoxicity rating ECHCO,[1]; 63 g ai/ha,80
same,phytotoxicity rating ECHCO,[1]; 250 g ai/ha,100
same,phytotoxicity rating XANST,[2]; 63 g ai/ha,100
same,phytotoxicity rating XANST,[2]; 250 g ai/ha,100
same,phytotoxicity rating AMBEL,[3]; 63 g ai/ha,75
same,phytotoxicity rating AMBEL,[3]; 250 g ai/ha,100
same,phytotoxicity rating SETVI,[4]; 63 g ai/ha,85
same,phytotoxicity rating SETVI,[4]; 250 g ai/ha,100
same,phytotoxicity rating IPOHE,[5]; 63 g ai/ha,100
same,phytotoxicity rating IPOHE,[5]; 250 g ai/ha,100
same,phytotoxicity rating SORHA,[6]; 63 g ai/ha,75
same,phytotoxicity rating SORHA,[6]; 250 g ai/ha,100
same,phytotoxicity rating CHEAL,[7]; 63 g ai/ha,100
same,phytotoxicity rating CHEAL,[7]; 250 g ai/ha,100
same,phytotoxicity rating DIGSA,[8]; 63 g ai/ha,50
same,phytotoxicity rating DIGSA,[8]; 250 g ai/ha,70
same,phytotoxicity rating AMARE,[9]; [23],100
same,phytotoxicity rating AMARE,"[9]; 250 g ai/ha, scale 0-100",100
same,phytotoxicity rating CASOB,[10]; 63 g ai/ha,99
same,phytotoxicity rating CASOB,[10]; 250 g ai/ha,95
same,phytotoxicity rating ABUTH,[11]; 63 g ai/ha,100
same,phytotoxicity rating ABUTH,[11]; 250 g ai/ha,100
same,phytotoxicity rating ECHCG,[12]; 63 g ai/ha,98
same,phytotoxicity rating ECHCG,[12]; 250 g ai/ha,100
same,phytotoxicity rating XANST,[13]; 63 g ai/ha,98
same,phytotoxicity rating XANST,[13]; 250 g ai/ha,100
same,phytotoxicity rating AMBEL,[14]; 63 g ai/ha,100
same,phytotoxicity rating AMBEL,[14]; 250 g ai/ha,100
same,phytotoxicity rating SETVI,[15]; 63 g ai/ha,100
same,phytotoxicity rating SETVI,[15]; 250 g ai/ha,100
same,phytotoxicity rating IPOHE,[16]; 63 g ai/ha,100
same,phytotoxicity rating IPOHE,[16]; 250 g ai/ha,100
same,phytotoxicity rating SORHA,[17]; 63 g ai/ha,99
same,phytotoxicity rating SORHA,[17]; 250 g ai/ha,100
same,phytotoxicity rating CHEAL,[18]; 63 g ai/ha,100
same,phytotoxicity rating CHEAL,[18]; 250 g ai/ha,100
same,phytotoxicity rating DIGSA,[19]; 63 g ai/ha,100
same,phytotoxicity rating DIGSA,[19]; 250 g ai/ha,100
same,phytotoxicity rating AMARE,[20]; 63 g ai/ha,100
same,phytotoxicity rating AMARE,[20]; 250 g ai/ha,100
same,phytotoxicity rating CASOB,[21]; 63 g ai/ha,98
same,phytotoxicity rating CASOB,[21]; 250 g ai/ha,100
same,phytotoxicity rating ABUTH,[22]; 63 g ai/ha,100
same,phytotoxicity rating ABUTH,[22]; 250 g ai/ha,100
"COC(=NN=C(C(C)(C)C)C(C)(C)C)c1cc(-n2c(=O)cc(C(F)(F)F)n(C)c2=O)c(F)cc1Cl [Compound 5-6, 2-chloro-5-(3,6-dihydro-3-methyl-2,6-dioxo-4-(trifluoromethyl)-1(2H)-pyrimidinyl)-N-[1-(1,1-dimethylethyl)-2,2-dimethylpropylidene]-4-fluoro-benzenecarbohydrazonic Acid Methyl Ester]",phytotoxicity rating ECHCO,[1]; 63 g ai/ha,40
same,phytotoxicity rating ECHCO,[1]; 250 g ai/ha,90
same,phytotoxicity rating XANST,[2]; 63 g ai/ha,0
same,phytotoxicity rating XANST,[2]; 250 g ai/ha,10
same,phytotoxicity rating AMBEL,[3]; 63 g ai/ha,35
same,phytotoxicity rating AMBEL,[3]; 250 g ai/ha,99
same,phytotoxicity rating SETVI,[4]; 63 g ai/ha,95
same,phytotoxicity rating SETVI,[4]; 250 g ai/ha,100
same,phytotoxicity rating IPOHE,[5]; 63 g ai/ha,35
same,phytotoxicity rating IPOHE,[5]; 250 g ai/ha,70
same,phytotoxicity rating SORHA,[6]; 63 g ai/ha,25
same,phytotoxicity rating SORHA,[6]; 250 g ai/ha,100
same,phytotoxicity rating CHEAL,[7]; 63 g ai/ha,100
same,phytotoxicity rating CHEAL,[7]; 250 g ai/ha,100
same,phytotoxicity rating DIGSA,[8]; 63 g ai/ha,20
same,phytotoxicity rating DIGSA,[8]; 250 g ai/ha,99
same,phytotoxicity rating AMARE,[9]; [23],100
same,phytotoxicity rating AMARE,"[9]; 250 g ai/ha, scale 0-100",100
same,phytotoxicity rating CASOB,[10]; 63 g ai/ha,40
same,phytotoxicity rating CASOB,[10]; 250 g ai/ha,98
same,phytotoxicity rating ABUTH,[11]; 63 g ai/ha,75
same,phytotoxicity rating ABUTH,[11]; 250 g ai/ha,95
same,phytotoxicity rating ECHCG,[12]; 63 g ai/ha,40
same,phytotoxicity rating ECHCG,[12]; 250 g ai/ha,90
same,phytotoxicity rating XANST,[13]; 63 g ai/ha,0
same,phytotoxicity rating XANST,[13]; 250 g ai/ha,10
same,phytotoxicity rating AMBEL,[14]; 63 g ai/ha,35
same,phytotoxicity rating AMBEL,[14]; 250 g ai/ha,99
same,phytotoxicity rating SETVI,[15]; 63 g ai/ha,95
same,phytotoxicity rating SETVI,[15]; 250 g ai/ha,100
same,phytotoxicity rating IPOHE,[16]; 63 g ai/ha,35
same,phytotoxicity rating IPOHE,[16]; 250 g ai/ha,70
same,phytotoxicity rating SORHA,[17]; 63 g ai/ha,25
same,phytotoxicity rating SORHA,[17]; 250 g ai/ha,100
same,phytotoxicity rating CHEAL,[18]; 63 g ai/ha,100
same,phytotoxicity rating CHEAL,[18]; 250 g ai/ha,100
same,phytotoxicity rating DIGSA,[19]; 63 g ai/ha,20
same,phytotoxicity rating DIGSA,[19]; 250 g ai/ha,99
same,phytotoxicity rating AMARE,[20]; 63 g ai/ha,100
same,phytotoxicity rating AMARE,[20]; 250 g ai/ha,100
same,phytotoxicity rating CASOB,[21]; 63 g ai/ha,40
same,phytotoxicity rating CASOB,[21]; 250 g ai/ha,98
same,phytotoxicity rating ABUTH,[22]; 63 g ai/ha,75
same,phytotoxicity rating ABUTH,[22]; 250 g ai/ha,95
